24 compounds from patent US6335451B1, “Five-membered heterocycles having biphenylsulfonyl substitution, with sulfonylcyanamide side chain, compositions containing them, and methods of using them” (Hoechst Aktiengesellschaft, priority 1997, dated 2002) can be followed below.

Bounds are passed on as bounds.

Series [1] concerns Na+-dependent Cl−/HCO3− exchanger (NCBE). Nature of the series: Inhibition of the Na+-dependent Cl−/HCO3− exchanger (NCBE) in human endothelial cells (pHi recovery, BCECF fluorescence, FLIPR). To be noted: inhibitor concentration of 10 μM; human endothelial cells (ECV-304); relative to 100% and 0% pHi recovery controls, 50 μM HOE 642 present. The series is classed as cell-based. The protocol: Inhibition of the Na^+-dependent Cl^−/HCO3^− exchanger (NCBE) in human endothelial cells
Human endothelial cells (ECV-304) were detached from culture bottles with the aid of trypsin/EDTA buffer (0.05/0.02% in phosphate buffer) and, after centrifugation (100 g, 5 min), taken up in a buffered salt solution (mmol/l: 115 NaCl, 20 NH4Cl, 5 KCl, 1 CaCl2, 1 MgSO4, 20 N-(2-hydroxyethyl)piperazine-N′-2-ethanesulfonic acid (HEPES), 5 glucose and 1 g/l of bovine serum albumin; pH 7.4). This cell suspension was incubated at 37° C. for 20 min with 5 μM BCECF-acetoxymethyl ester. The cells were then washed and resuspended in a sodium- and bicarbonate-free buffer solution (mmol/l: 5 HEPES, 133.8 choline chloride, 4.7 KCl, 1.25 MgCl2, 0.97 K2HPO4, 0.23 KH2PO4, 5 glucose; pH 7.4).
For subsequent fluorescence measurement in an FLIPR (Fluorescent Imaging Plate Reader) 100 μl of this cell suspension having 20,000 cells in each case were pipetted per well into a 96-well microtiter plate and this microtiter plate was centrifuged (100 g, 5 min).
In the FLIPR, 100 μl of buffer solution in each case were then removed from a further pretreated microtiter plate and pipetted into each of the 96 wells of the measurement plate. A bicarbonate- and sodium-containing buffer solution (mmol/l: 5 HEPES, 93.8 NaCl, 40 NaHCO3, 4.7 KCl, 1.25 CaCl2, 1.25 MgCl2, 0.97 Na2HPO4, 0.23 NaH2PO4, 5 glucose; pH 7.4) which contained 50 μM HOE 642 was used for a 100% control, i.e. a recovery of the intracellular pH (pHi) via the NCBE. For a 0% control, i.e. no pHi recovery at all, the bicarbonate-free, sodium-containing buffer solution (mmol/l: 5 HEPES, 133.8 NaCl, 4.7 KCl, 1.25 CaCl2, 1.25 MgCl2, 0.97 Na2HPO4, 0.23 NaH2PO4, 5 glucose; pH 7.4) was employed, to which 50 μM HOE 642 were likewise added. The compounds according to the invention were added to the sodium- and bicarbonate-containing solution in various concentrations.
After addition of the buffer solutions to the dye-loaded, acidified cells in the measurement plate, the rise in the fluorescence intensity which corresponded to a rise in the pHi in each well of the microtiter plate was determined. The kinetics were in this case recorded at 35° C. for a period of 2 minutes.
The increase in the fluorescence intensities for different concentrations of the compounds according to the invention was related to the two controls and from this inhibitory action of the substances was determined.
Residual Activity of the NCBE at an Inhibitor Concentration of 10 μM

Turning to `CCCCc1nc(SC)c(C(=O)OCC)n1Cc1ccc(-c2ccccc2S(=O)(=O)NC#N)cc1` [Example 1, Ethyl 2-butyl-5-methylsulfanyl-3-(2′-cyanoaminosulfonyl-biphenyl-4-ylmethyl)-3H-imidazole-4-carboxylate], the melting point is 111 °C (dec.). Further, the “Residual activity in % (residual activity of the NCBE)” value (“Residual activity in %” for short) in series [1] is 17.7%.
Take `CCCCc1nc(SC)c(C(=O)OCC)n1Cc1ccc(-c2cccc(S(=O)(=O)NC#N)c2)cc1` [Example 2, Ethyl 2-butyl-5-methylsulfanyl-3-(3′-cyanoaminosulfonylbiphenyl-4-ylmethyl)-3H-imidazole-4-carboxylate]: the “Residual activity in %” value in series [1] is 39.6%.
On to `CCCCc1nc(SC)c(C(=O)OCC)n1Cc1ccc(-c2ccc(S(=O)(=O)NC#N)cc2)cc1` [Example 3, Ethyl 2-butyl-5-methylsulfanyl-3-(4′-cyanoaminosulfonylbiphenyl-4-ylmethyl)-3H-imidazole-4-carboxylate], for which the melting point is 244 °C (dec.). Also, in series [1], the “Residual activity in %” value turned out to be 74.1%.
On to `CCCCc1nc(SC)c(C(=O)OCC)n1Cc1cccc(-c2ccccc2S(=O)(=O)NC#N)c1` [Example 4, Ethyl 2-butyl-5-methylsulfanyl-3-(2′-cyanoaminosulfonyl-biphenyl-3-ylmethyl)-3H-imidazole-4-carboxylate], for which the melting point is 118 °C (dec.). Also, the “Residual activity in %” value in series [1] is listed as 39.7%.
Consider `CCCCc1nc(SC)c(C(=O)OCC)n1Cc1cccc(-c2cccc(S(=O)(=O)NC#N)c2)c1` [Example 5, Ethyl 2-butyl-5-methylsulfanyl-3-(3′-cyanoaminosulfonyl-biphenyl-3-ylmethyl)-3H-imidazole-4-carboxylate], for which the melting point is 112 °C (dec.). Besides, the “Residual activity in %” value in series [1] amounted to 43.2%.
The corresponding values for `CCCCc1nc(SC)c(C(=O)OCC)n1Cc1cccc(-c2ccc(S(=O)(=O)NC#N)cc2)c1` [Example 6, Ethyl 2-butyl-5-methylsulfanyl-3-(4′-cyanoaminosulfonyl-biphenyl-3-ylmethyl)-3H-imidazole-4-carboxylate] are 120 °C (dec.) and 58.6%.
With `CCCCc1nc(SC)c(C(=O)OCC)n1Cc1ccccc1-c1ccccc1S(=O)(=O)NC#N` [Example 7, Ethyl 2-butyl-5-methylsulfanyl-3-(2′-cyanoaminosulfonyl-biphenyl-2-ylmethyl)-3H-imidazole-4-carboxylate], the melting point is 105 °C (dec.). Further, the “Residual activity in %” value in series [1] was found to be 72.1%.
`CCCCc1nc(SC)c(C(=O)OCC)n1Cc1ccccc1-c1cccc(S(=O)(=O)NC#N)c1` [Example 8, Ethyl 2-butyl-5-methylsulfanyl-3-(3′-cyanoaminosulfonyl-biphenyl-2-ylmethyl)-3H-imidazole-4-carboxylate]: the melting point was 108 °C (dec.). Besides, the “Residual activity in %” value in series [1] is 60.8%.
In the same order, the values of `CCCCc1nc(SC)c(C(=O)OCC)n1Cc1ccccc1-c1ccc(S(=O)(=O)NC#N)cc1` [Example 9, Ethyl 2-butyl-5-methylsulfanyl-3-(4′-cyanoaminosulfonyl-biphenyl-2-ylmethyl)-3H-imidazole-4-carboxylate] are 116 °C (dec.) and 31.6%.
The compound `CCOC(=O)c1c(SC)nc(C2CC2)n1Cc1ccc(-c2ccccc2S(=O)(=O)NC#N)cc1` [Example 10, Ethyl 2-cyclopropyl-5-methylsulfanyl-3-(2′-cyanoaminosulfonylbiphenyl-4-ylmethyl)-3H-imidazole-4-carboxylate] registered a melting point of over 260 °C. In addition, the “Residual activity in %” value in series [1] was found to be 21.6%.
`N#CNS(=O)(=O)c1ccccc1-c1ccc(Cn2c(-c3ccccc3)nc(Cl)c2C=O)cc1` [Example 11, 4′-(4-Chloro-5-formyl-2-phenylimidazol-1-ylmethyl)biphenyl-2-sulfonylcyanamide]: the “Residual activity in %” value in series [1] came to 15.0%.
The same measure, in the same setting: with `COc1nc(-c2ccccc2)n(Cc2ccc(-c3ccccc3S(=O)(=O)NC#N)cc2)c1C=O` [Example 12, 4′-(4-Methoxy-5-formyl-2-phenylimidazol-1-ylmethyl)biphenyl-2-sulfonylcyanamide] the figure was 20.8%.
With `CCCCc1ncc(C(=O)OCC)n1Cc1ccc(-c2ccccc2S(=O)(=O)NC#N)cc1` [Example 13, Ethyl 2-butyl-3-(2′-cyanoaminosulfonylbiphenyl-4-ylmethyl)-3H-imidazole-4-carboxylate], the melting point was 121 °C (dec.). In addition, in series [1], the “Residual activity in %” value is 89.5%.
`CCCCc1nc(OC)c(C#N)n1Cc1ccc(-c2ccccc2S(=O)(=O)NC#N)cc1` [Example 14, 4′-(2-Butyl-5-cyano-4-methoxyimidazol-1-ylmethyl)biphenyl-2-sulfonylcyanamide]: the melting point was 160 °C (dec.). In series [1], the “Residual activity in %” value is on record as 47.3%.
As to `CCCCc1nc(SC)c(C(=O)OCC)n1Cc1ccc(-c2ccc(S(=O)(=O)NC#N)cc2C(F)(F)F)cc1` [Example 23, Ethyl 2-butyl-5-methylsulfanyl-3-(4′-cyanoaminosulfonyl-2′-trifluoromethylbiphenyl-4-ylmethyl)-3H-imidazole-4-carboxylate], in series [1], the “Residual activity in %” value was 31.6%.
The same measure, in the same setting: with `CCCCc1nc(SC)cn1Cc1ccc(-c2ccccc2S(=O)(=O)NC#N)cc1` [Example 27, 4′-(2-Butyl-4-methylsulfanylimidazol-1-ylmethyl)biphenyl-2-sulfonylcyanamide] the figure was 50.0%; with `N#CNS(=O)(=O)c1ccccc1-c1ccc(Cn2cc(Cl)nc2-c2ccccc2)cc1` [Example 28, 4′-(4-Chloro-2-phenylimidazol-1-ylmethyl)biphenyl-2-sulfonylcyanamide], 30.5%; with `CC(=O)c1c(Cl)nc(-c2ccccc2)n1Cc1ccc(-c2ccccc2S(=O)(=O)NC#N)cc1` [Example 29, 4′-(5-Acetyl-4-chloro-2-phenylimidazol-1-ylmethyl)biphenyl-2-sulfonylcyanamide], 39.6%.
As to `COc1nc(-c2ccccc2)n(Cc2ccc(-c3ccccc3S(=O)(=O)NC#N)cc2)c1C(C)=O` [Example 30, 4′-(5-Acetyl-4-methoxy-2-phenylimidazol-1-ylmethyl)biphenyl-2-sulfonylcyanamide], in series [1], the “Residual activity in %” value is 48.8%.
On to `N#CNS(=O)(=O)c1ccccc1-c1ccc(Cn2c(-c3ccccc3)nc(-c3ccccc3)c2-c2ccccc2)cc1` [Example 31, 4′-(2,4,5-Triphenylimidazol-1-ylmethyl)biphenyl-2-sulfonylcyanamide], for which the “Residual activity in %” value in series [1] was determined as 36.5%.
On the same count and under the same terms, the same measure for `N#CNS(=O)(=O)c1ccccc1-c1ccc(Cn2c(-c3ccccc3)nc(Cl)c2C=O)c(Cl)c1` [Example 32, 3′-Chloro-4′-(4-chloro-5-formyl-2-phenylimidazol-1-ylmethyl)biphenyl-2-sulfonylcyanamide]: 7.8%.
For `N#CNS(=O)(=O)c1ccccc1-c1ccc(Cn2c(-c3ccccc3)nc(Cl)c2C=O)c(F)c1` [Example 33, 3′-Fluoro-4′-(4-chloro-5-formyl-2-phenyl-imidazole-1-ylmethyl)biphenyl-2-sulfonylcyanamide], the “Residual activity in %” value in series [1] is listed as 7.6%.
For `COc1nc(-c2ccccc2)n(Cc2ccc(-c3ccccc3S(=O)(=O)NC#N)cc2Cl)c1C=O` [Example 34, 3′-Chloro-4′-(4-methoxy-5-formyl-2-phenyl-imidazole-1-ylmethyl)biphenyl-2-sulfonylcyanamide], the “Residual activity in %” value in series [1] came out at 5.5%.
Turning to `N#CNS(=O)(=O)c1ccccc1-c1ccc(Cn2c(-c3ccccc3)nc(Oc3ccccc3)c2C=O)c(Cl)c1` [Example 35, 3′-Chloro-4′-(4-phenoxy-5-formyl-2-phenyl-imidazole-1-ylmethyl)biphenyl-2-sulfonylcyanamide], the “Residual activity in %” value in series [1] was determined as 3.2%.

A word on the melting point: it is the temperature of the solid-liquid transition.
